Data: US20200187502A1, “MICROBIOCIDAL OXADIAZOLE DERIVATIVES” (SYNGENTA PARTICIPATIONS AG, priority 2017, published 2020)

Tests used:
[1] = test system: Puccinia recondita f. Sp. Tritici; assay: Fungicidal activity, wheat leaf disc preventative (brown rust); format: in vivo; conditions: foliar, 200 ppm in the applied formulation, wheat leaf segments cv. Kanzler, compared to untreated control, 7 to 9 days after application, read-out: disease control
Procedure, shortened: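 Preventative leaf-segment test: spray application of diluted formulated compound on wheat cv. Kanzler, spore inoculation after 1 day. Percent control relative to untreated segments rated 7 to 9 days post-application, with incubation at 19° C, 75% relative humidity, 12 h photoperiod.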

[2] = test system: Puccinia recondita f. Sp. Tritici; assay: Fungicidal activity, wheat leaf disc curative (brown rust); format: in vivo; conditions: foliar, 200 ppm in the applied formulation, wheat leaf segments cv. Kanzler, curative (applied 1 day after inoculation), compared to untreated control, 6 to 8 days after application, read-out: disease control
Procedure, shortened: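 Compound applied 1 day after spore inoculation of wheat cv. Kanzler leaf segments on agar (dark, 19 °C, 75% RH before treatment). After further incubation under 12 h light/12 h dark at 19 °C and 75% RH, disease control relative to untreated segments rated 6–8 days post-application.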

Phakopsora pachyrhizi = assay: Fungicidal activity, soybean leaf disc preventative (Asian soybean rust); format: in vivo; conditions: foliar, 200 ppm in the applied formulation, soybean leaf disks, compared to untreated control, 12 to 14 days after application, read-out: disease control
Procedure, shortened: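 Read-out is percent disease control relative to untreated check discs, assessed once untreated discs show adequate disease, 12 to 14 days after application. Compounds, tested at 200 ppm in the applied formulation, are sprayed onto soybean leaf discs one day before inoculation with a spore suspension.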

[3] = test system: Glomerella lacenarium (Colletotrichum lacenarium); assay: Fungicidal activity, liquid culture, cucumber preventative (anthracnose); format: cell-based; conditions: 20 ppm in the applied formulation, liquid culture in PDB, inhibition of growth measured photometrically 3 to 4 days after application, compared to untreated control, read-out: disease control
Procedure, shortened: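 Photometric read-out of fungal growth 3 to 4 days after application, expressed as percent control relative to untreated wells. Plates held at 24 °C. Compound placed in DMSO before adding PDB broth seeded with conidia from cryogenic storage.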

CON(Cc1ccc(-c2noc(C(F)(F)F)n2)s1)C(=O)NC1CC1 [Compound 1.27, 3-cyclopropyl-1-methoxy-1-[[5-[5-(trifluoromethyl)-1,2,4-oxadiazol-3-yl]-2-thienyl]methyl]urea]
≥ 80%: pest or weed control at 200 ppm [1] | pest or weed control at 200 ppm [2] | pest or weed control at 200 ppm (Phakopsora pachyrhizi) | inhibition of growth at 20 ppm [3]
82.2 to 83.8 °C: melting point

CNC(=O)N(Cc1ccc(-c2noc(C(F)(F)F)n2)s1)OC [Compound 1.2, 1-methoxy-3-methyl-1-[[5-[5-(trifluoromethyl)-1,2,4-oxadiazol-3-yl]-2-thienyl]methyl]urea]
≥ 80%: pest or weed control at 200 ppm [1] | pest or weed control at 200 ppm [2] | pest or weed control at 200 ppm (Phakopsora pachyrhizi) | inhibition of growth at 20 ppm [3]
93.2 to 95.7 °C: melting point

COCCC(=O)N(C)Cc1ccc(-c2noc(C(F)(F)F)n2)s1 [Compound 4.35, 3-methoxy-N-methyl-N-[[5-[5-(trifluoromethyl)-1,2,4-oxadiazol-3-yl]-2-thienyl]methyl]propanamide]
≥ 80%: pest or weed control at 200 ppm [1] | pest or weed control at 200 ppm [2] | pest or weed control at 200 ppm (Phakopsora pachyrhizi) | inhibition of growth at 20 ppm [3]

CC(C)NC(=O)N(C)Cc1ccc(-c2noc(C(F)(F)F)n2)s1 [Compound 4.17, 3-isopropyl-1-methyl-1-[[5-[5-(trifluoromethyl)-1,2,4-oxadiazol-3-yl]-2-thienyl]methyl]urea]
≥ 80%: pest or weed control at 200 ppm [1] | pest or weed control at 200 ppm [2] | pest or weed control at 200 ppm (Phakopsora pachyrhizi) | inhibition of growth at 20 ppm [3]

CON(Cc1ccc(-c2noc(C(F)(F)F)n2)s1)C(=O)C(N)=O [Compound 1.24, N′-methoxy-N′-[[5-[5-(trifluoromethyl)-1,2,4-oxadiazol-3-yl]-2-thienyl]methyl]oxamide]
≥ 80%: pest or weed control at 200 ppm [1] | pest or weed control at 200 ppm [2] | pest or weed control at 200 ppm (Phakopsora pachyrhizi) | inhibition of growth at 20 ppm [3]

CCN(Cc1ccc(-c2noc(C(F)(F)F)n2)s1)C(=O)C(N)=O [Compound 6.5, N′-ethyl-N′-[[5-[5-(trifluoromethyl)-1,2,4-oxadiazol-3-yl]-2-thienyl]methyl]oxamide]
≥ 80%: pest or weed control at 200 ppm [1] | pest or weed control at 200 ppm [2] | pest or weed control at 200 ppm (Phakopsora pachyrhizi) | inhibition of growth at 20 ppm [3]

C#CCNC(=O)N(Cc1ccc(-c2noc(C(F)(F)F)n2)s1)OCC(F)F [Compound 4.93, 1-(2,2-difluoroethoxy)-3-prop-2-ynyl-1-[[5-[5-(trifluoromethyl)-1,2,4-oxadiazol-3-yl]-2-thienyl]methyl]urea]
≥ 80%: pest or weed control at 200 ppm [1] | pest or weed control at 200 ppm [2] | pest or weed control at 200 ppm (Phakopsora pachyrhizi) | inhibition of growth at 20 ppm [3]

CON(Cc1ccc(-c2noc(C(F)(F)F)n2)s1)C(=O)CNC(C)=O [Compound 1.7, 2-acetamido-N-methoxy-N-[[5-[5-(trifluoromethyl)-1,2,4-oxadiazol-3-yl]-2-thienyl]methyl]acetamide]
≥ 80%: pest or weed control at 200 ppm [1] | pest or weed control at 200 ppm [2] | pest or weed control at 200 ppm (Phakopsora pachyrhizi) | inhibition of growth at 20 ppm [3]

CCC(=O)N(Cc1ccc(-c2noc(C(F)(F)F)n2)s1)OC [Compound 1.12, N-methoxy-N-[[5-[5-(trifluoromethyl)-1,2,4-oxadiazol-3-yl]-2-thienyl]methyl]propanamide]
≥ 80%: pest or weed control at 200 ppm [1] | pest or weed control at 200 ppm [2] | pest or weed control at 200 ppm (Phakopsora pachyrhizi) | inhibition of growth at 20 ppm [3]

CN(Cc1ccc(-c2noc(C(F)(F)F)n2)s1)C(=O)CC(F)(F)F [Compound 4.40, 3,3,3-trifluoro-N-methyl-N-[[5-[5-(trifluoromethyl)-1,2,4-oxadiazol-3-yl]-2-thienyl]methyl]propanamide]
≥ 80%: pest or weed control at 200 ppm [1] | pest or weed control at 200 ppm [2] | pest or weed control at 200 ppm (Phakopsora pachyrhizi) | inhibition of growth at 20 ppm [3]
